Values joined by “and” are separate entries in the source; they are usually repeats but may differ in a detail not shown here. Equal entries are not always repeated. Structures can show the parent of a compound that is named as a salt. Where two headings read alike, the source gives them in different places.
Tests used:
[1] = oral administration; cited from earlier work
[2] = in vitro and in vivo; cited from earlier work
mice and rats = details: cited from earlier work
[3] = test system: patients undergoing TKA or THA; experiment: Example 2: open label study of Tramadol IV in Total knee Arthroplasty or Total Hip Arthroplasty; details: for PAIN Intensity Difference, Mean score (SD): 100 mg IV; for Time to first demand of rescue medication after the first dose of Tramadol, Mean: hydrochloride
[4] = tramadol […] [100 mg] p.o., single dose; cited from earlier work
[5] = cited from earlier work
[6] = in vivo, cited from earlier work
Beagle dogs = details: in vivo
in vivo = details: beagle, dog; for AUC(0-t) / Cmax: 26 mg/kg/day
postoperative patients = details: cited from earlier work

SMILES: COc1cccc([C@]2(O)CCCC[C@H]2CN(C)C)c1 (racemic) [Tramadol, (±)cis-2-[(dimethylamino)methyl]-1-(3-methoxyphenyl) cyclohexanol hydrochloride]
- fertility and teratogenic effects [1]: no safety concerns with respect to fertility or teratogenic effects
- genotoxic potential [2]: no evidence of genotoxic potential
- carcinogenic potential (mice and rats): no evidence of carcinogenic potential
- major adverse events ([3]; 100 mg IV every 6 hours, 48 hours): nausea and vomiting, followed by pruritus
- tolerability ([3]; 100 mg QID, patients with both high and low BMI): well tolerated
- Morphine usage, Mean ([3]; 1st dose Tramadol at wound closure, First 24 hours): 10.57 mg
- Morphine usage, Mean ([3]; 1st dose Tramadol at wound closure, In 48 hours): 12.98 mg
- Morphine usage, Mean ([3]; 1st dose Tramadol at wound closure, Loading dose): 4.05 mg
- Morphine usage, Mean ([3]; 1st dose Tramadol at wound closure, Second 24 hours): 3.79 mg
- Morphine usage, Mean ([3]; 1st dose Tramadol on demand, First 24 hours): 11.03 mg
- Morphine usage, Mean ([3]; 1st dose Tramadol on demand, In 48 hours): 12.92 mg
- Morphine usage, Mean ([3]; 1st dose Tramadol on demand, Loading dose): 3.69 mg
- Morphine usage, Mean ([3]; 1st dose Tramadol on demand, Second 24 hours): 4 mg
- PAIN Intensity Difference, Mean score (SD) ([3]; 1st dose at wound closure, 0.5 hours post first dose): 0 (0.09)
- PAIN Intensity Difference, Mean score (SD) ([3]; 1st dose at wound closure, 1 hour post first dose): −0.3 (1.6)
- PAIN Intensity Difference, Mean score (SD) ([3]; 1st dose at wound closure, 2 hours post first dose): −1.2 (1.8)
- PAIN Intensity Difference, Mean score (SD) ([3]; 1st dose at wound closure, 3 hours post first dose): −2.2 (1.9)
- PAIN Intensity Difference, Mean score (SD) ([3]; 1st dose at wound closure, 4 hours post first dose): −2.6 (2.0)
- PAIN Intensity Difference, Mean score (SD) ([3]; 1st dose at wound closure, 6 hours post first dose): −3.2 (2.1)
- PAIN Intensity Difference, Mean score (SD) ([3]; 1st dose at wound closure, 9 hours post first dose): −2.7 (2.2)
- PAIN Intensity Difference, Mean score (SD) ([3]; 1st dose at wound closure, 12 hours post first dose): −2.2 (2.0)
- PAIN Intensity Difference, Mean score (SD) ([3]; 1st dose at wound closure, 18 hours post first dose): −2.2 (2.1)
- PAIN Intensity Difference, Mean score (SD) ([3]; 1st dose at wound closure, 24 hours post first dose): −1.9 (1.5)
- PAIN Intensity Difference, Mean score (SD) ([3]; 1st dose at wound closure, 30 hours post first dose): −1.6 (1.4)
- PAIN Intensity Difference, Mean score (SD) ([3]; 1st dose at wound closure, 36 hours post first dose): −1.3 (1.4)
- PAIN Intensity Difference, Mean score (SD) ([3]; 1st dose at wound closure, 42 hours post first dose): −1.7 (1.8)
- PAIN Intensity Difference, Mean score (SD) ([3]; 1st dose at wound closure, 48 hours post first dose): −1.4 (1.5)
- PAIN Intensity Difference, Mean score (SD) ([3]; 1st dose on demand, 0.5 hours post first dose): −0.1 (2.4)
- PAIN Intensity Difference, Mean score (SD) ([3]; 1st dose on demand, 1 hour post first dose): −0.5 (2.8)
- PAIN Intensity Difference, Mean score (SD) ([3]; 1st dose on demand, 2 hours post first dose): 0.2 (2.1)
- PAIN Intensity Difference, Mean score (SD) ([3]; 1st dose on demand, 3 hours post first dose): 0.3 (2.3)
- PAIN Intensity Difference, Mean score (SD) ([3]; 1st dose on demand, 4 hours post first dose): 0.3 (2.6)
- PAIN Intensity Difference, Mean score (SD) ([3]; 1st dose on demand, 6 hours post first dose): 0.1 (2.8)
- PAIN Intensity Difference, Mean score (SD) ([3]; 1st dose on demand, 9 hours post first dose): 0.8 (2.9)
- PAIN Intensity Difference, Mean score (SD) ([3]; 1st dose on demand, 12 hours post first dose): 1.4 (2.0)
- PAIN Intensity Difference, Mean score (SD) ([3]; 1st dose on demand, 18 hours post first dose): 1.2 (2.2)
- PAIN Intensity Difference, Mean score (SD) ([3]; 1st dose on demand, 24 hours post first dose): 1.6 (1.8)
- PAIN Intensity Difference, Mean score (SD) ([3]; 1st dose on demand, 30 hours post first dose): 1.9 (2.4)
- PAIN Intensity Difference, Mean score (SD) ([3]; 1st dose on demand, 36 hours post first dose): 1.9 (2.1)
- PAIN Intensity Difference, Mean score (SD) ([3]; 1st dose on demand, 42 hours post first dose): 2.1 (2.1)
- PAIN Intensity Difference, Mean score (SD) ([3]; 1st dose on demand, 48 hours post first dose): 2.4 (2.3)
- Time to first demand of rescue medication after the first dose of Tramadol, Mean ([3]; Tramadol at wound Closure group): 2.5 (+/−3) hours and 2.52 hours
- Time to first demand of rescue medication after the first dose of Tramadol, Mean ([3]; Tramadol on demand group): 2.11 h
- Time to first demand of rescue medication after the first dose of Tramadol, Mean ([3]; Tramadol on demand group, listed as tramadol): 2.1 (+/−5.4) hours
- total amount of morphine used ([3]; both groups): approximately 15 mg
- rescue morphine used ([3]; first 24 hours, both groups): about 11 mg
- rescue morphine used ([3]; the next day, both groups): 4 mg
- AUC [4]: 2177 ± 722 ng·h/mL
- Cmax [4]: 274 ± 75 ng/mL
- Tmax [4]: 1.6 ± 0.5 h
- t1/2 [4]: 5.9 ± 0.7 h
- estimated absorption of the oral dose ([5]; 100 mg PO): 86-88%
- AUC0-24 h ([5]; 100 mg i.v.): 3709 ± 977 ng·h/mL
- Vd ([5]; 100 mg i.v.): 203 L
- t1/2 ([5]; 100 mg i.v.): 5.2 h
- CL/F (total clearance) ([5]; 100 mg i.v., hydrochloride): 467 ± 124 mL/min
- CL/F (total clearance) ([5]; 100 mg i.v., listed as tramadol, hydrochloride): 710 ± 174 mL/min
- time to peak serum concentration (tmax) ([5]; 100 mg oral dosing): approximately 2 hours
- AUC0-24 h ([5]; 100 mg p.o.): 2488 ± 774 ng·h/mL
- Cmax ([5]; 100 mg p.o.): 280 ± 49 ng/mL
- Vd ([5]; 100 mg p.o.): 306 L
- t1/2 ([5]; 100 mg p.o.): 5.1 h
- CL/F (total clearance) ([5]; 100 mg p.o., hydrochloride): 710 ± 174 mL/min
- CL/F (total clearance) ([5]; 100 mg p.o., listed as tramadol, hydrochloride): 467 ± 124 mL/min
- absolute bioavailability of the oral dose ([5]; 100 mg, comparison of AUC values, hydrochloride): 68±13% and 68%
- distribution half-life in the initial phase ([5]; after IV administration): 0.31 ± 0.17 h
- half-life of slower distribution phase ([5]; after IV administration): 1.7 ± 0.4 h
- first pass metabolism ([5]; estimated): ~20%
- half-life ([6]; iv): 5.6 h
- absolute bioavailability ([6]; po): 90-100%
- increase of elimination half-life [6]: approximately 2 fold
- adverse observations (Beagle dogs; dog): convulsions for two Beagle dogs
- toxicity in humans, conclusion from dog data (Beagle dogs): not toxic
- NOAEL (in vivo; both, 6.5 mg/kg): 26 mg/kg/day
- AUC(0-t) (in vivo; female): 1520 ng·h/mL
- Cmax (in vivo; female): 1530 ng/mL
- AUC(0-t) (in vivo; male): 1210 ng·h/mL
- Cmax (in vivo; male): 1280 ng/mL
- serious adverse effects (postoperative patients; loading doses up to 150 mg IV (Silvasti 2000)): not associated with any serious adverse effects
- serious adverse effects (postoperative patients; mean cumulative doses 449 to 868.3 mg over 24, 36 and 48 h): no serious adverse effects were observed
